{"source": "patent US20140072624A1", "about": "“UNIT DOSE FORM FOR ORAL ADMINISTRATION” (THRESHOLD PHARMACEUTICALS, INC., priority 2011, published 2014)", "key": {"[1]": {"test": "Pharmacokinetics of TH-302 in rats after a single oral (PO) dose", "type": "in vivo, Sprague-Dawley rats", "experimental": "TH-302 (1-methyl-2-nitro-1H-imidazole-5-yl) N,N′-bis(2-bromoethyl) diamidophosphate, m.w.=449) that was about 96% pure based on high performance liquid chromatography (HPLC) analysis, was used. Male Sprague-Dawley rats (n=3 per time point) were administered a single oral dose of 100 mg/kg TH-302 (see, Table 1 and FIG. 1)."}, "[2]": {"test": "Single dose pharmacokinetics of TH-302 after a 30-min intravenous infusion in rats", "type": "in vivo", "conditions": "for Vd: read-out: Vss"}, "[3]": {"test": "Pharmacokinetics of TH-302 in rats after a single IV dose", "type": "in vivo, Sprague-Dawley rats", "conditions": "rat; for Tmax: Sprague-Dawley, plasma"}, "[4]": {"conditions": "male Sprague-Dawley rats, single oral dose 100 mg/kg in normal saline"}, "[5]": {"conditions": "rat, PO, 100 mg/kg, composite data, n = 3 per time point"}, "[6]": {"conditions": "Sprague-Dawley, rat, plasma, female rats, 50 mg/kg, 30-min IV infusion"}, "[7]": {"conditions": "Sprague-Dawley, rat, plasma, female rats, 100 mg/kg, 30-min IV infusion"}, "[8]": {"conditions": "Sprague-Dawley, rat, plasma, male rats, 50 mg/kg, 30-min IV infusion"}, "[9]": {"conditions": "Sprague-Dawley, rat, plasma, male rats, 100 mg/kg, 30-min IV infusion"}, "[10]": {"conditions": "Sprague-Dawley, rat, plasma, male rats, 200 mg/kg, 30-min IV infusion"}, "[11]": {"conditions": "male rats, 100 mg/kg, 30-min IV infusion"}, "[12]": {"conditions": "rat, plasma, female rats, 200 mg/kg, 30-min IV infusion"}}, "note": "Like-named read-outs stand apart in the source and are kept apart here."}
{"smiles": "Cn1c(COP(=O)(NCCBr)NCCBr)cnc1[N+](=O)[O-]", "note": "[TH-302]", "values": [{"measurement": "time of mean peak plasma concentration (first sampled time point)", "setting": "[1]; male Sprague-Dawley rats, single oral dose 100 mg/kg", "value": 15, "unit": "min"}, {"measurement": "mean peak plasma concentration", "setting": "[1]; [4]", "value": 15.8, "unit": "µg/mL"}, {"measurement": "time of mean peak plasma concentration (first sampling time point)", "setting": "[1]; [4]", "value": 0.25, "unit": "h"}, {"measurement": "oral absorption (in words)", "setting": "[1]; male Sprague-Dawley rats, single oral dose 100 mg/kg, 100 mg/kg", "value": "rapidly and well absorbed"}, {"measurement": "t1/2", "setting": "[1]; male rat, PO, 100 mg/kg, composite data, n = 3 per time point", "value": 96, "unit": "min"}, {"measurement": "Tmax", "setting": "[1]; male, Sprague-Dawley, plasma, rat, PO, 100 mg/kg, composite data, n = 3 per time point", "value": 15, "unit": "min"}, {"measurement": "bioavailability", "setting": "[1]; male, Sprague-Dawley, rat, plasma, oral, 100 mg/kg, male rat, PO, 100 mg/kg vs 100 mg/kg 30 minute IV infusion, read-out: Oral F (absolute oral bioavailability)", "value": 77.3, "unit": "%"}, {"measurement": "AUC (total area under the concentration-time curve from zero to infinity)", "setting": "[1]; [5]", "value": 13.1, "unit": "μg-"}, {"measurement": "Cmax", "setting": "[1]; [5]", "value": 15.8, "unit": "μg/m"}, {"measurement": "AUC", "setting": "[1]; rat, plasma, male Sprague-Dawley rats, single oral dose 100 mg/kg, read-out: mean area under the curve (AUC)", "value": 13100, "unit": "ng·h/mL"}, {"measurement": "Cmax", "setting": "[2]; [6]", "value": 14100, "unit": "ng/mL"}, {"measurement": "Tmax", "setting": "[2]; [6]", "value": 31, "unit": "min"}, {"measurement": "clearance", "setting": "[2]; [6]", "value": 115, "unit": "mL/min/kg"}, {"measurement": "Vd", "setting": "[2]; [6]", "value": 2.81, "unit": "L/kg"}, {"measurement": "Cmax", "setting": "[2]; [7]", "value": 30000, "unit": "ng/mL"}, {"measurement": "Tmax", "setting": "[2]; [7]", "value": 30, "unit": "min"}, {"measurement": "clearance", "setting": "[2]; [7]", "value": 103, "unit": "mL/min/kg"}, {"measurement": "Vd", "setting": "[2]; [7]", "value": 2.59, "unit": "L/kg"}, {"measurement": "Vd", "setting": "[2]; Sprague-Dawley, rat, plasma, female rats, 200 mg/kg, 30-min IV infusion", "value": 2.35, "unit": "L/kg"}, {"measurement": "Cmax", "setting": "[2]; [8]", "value": 15600, "unit": "ng/mL"}, {"measurement": "Tmax", "setting": "[2]; [8]", "value": 31, "unit": "min"}, {"measurement": "clearance", "setting": "[2]; [8]", "value": 104, "unit": "mL/min/kg"}, {"measurement": "Vd", "setting": "[2]; [8]", "value": 2.57, "unit": "L/kg"}, {"measurement": "Tmax", "setting": "[2]; [9]", "value": 33, "unit": "min"}, {"measurement": "clearance", "setting": "[2]; [9]", "value": 98.3, "unit": "mL/min/kg"}, {"measurement": "Cmax", "setting": "[2]; Sprague-Dawley, rat, plasma, male rats, 100 mg/kg, 30-min IV infusion (end of infusion)", "value": 30900, "unit": "ng/mL"}, {"measurement": "Vd", "setting": "[2]; [9]", "value": 2.59, "unit": "L/kg"}, {"measurement": "Cmax", "setting": "[2]; [10]", "value": 62500, "unit": "ng/mL"}, {"measurement": "Tmax", "setting": "[2]; [10]", "value": 33, "unit": "min"}, {"measurement": "clearance", "setting": "[2]; [10]", "value": 89.7, "unit": "mL/min/kg"}, {"measurement": "Vd", "setting": "[2]; [10]", "value": 2.51, "unit": "L/kg"}, {"measurement": "AUC", "setting": "[2]; female, Sprague-Dawley, rat, plasma, iv, 50 mg/kg, female rats, 50 mg/kg, 30-min IV infusion, read-out: AUC", "value": 7330, "unit": "ng·h/mL"}, {"measurement": "half-life", "setting": "[2]; female, Sprague-Dawley, rat, plasma, iv, 50 mg/kg, female rats, 50 mg/kg, 30-min IV infusion, read-out: Half-Life (converted)", "value": 19.1, "unit": "min"}, {"measurement": "AUC", "setting": "[2]; female, Sprague-Dawley, rat, plasma, iv, 100 mg/kg, female rats, 100 mg/kg, 30-min IV infusion, read-out: AUC", "value": 16100, "unit": "ng·h/mL"}, {"measurement": "half-life", "setting": "[2]; female, Sprague-Dawley, rat, plasma, iv, 100 mg/kg, female rats, 100 mg/kg, 30-min IV infusion, read-out: Half-Life (converted)", "value": 17.2, "unit": "min"}, {"measurement": "AUC", "setting": "[2]; female, rat, plasma, iv, 200 mg/kg, female rats, 200 mg/kg, 30-min IV infusion, read-out: AUC", "value": 40600, "unit": "ng·h/mL"}, {"measurement": "half-life", "setting": "[2]; female, rat, plasma, iv, 200 mg/kg, female rats, 200 mg/kg, 30-min IV infusion, read-out: Half-Life (converted)", "value": 23.4, "unit": "min"}, {"measurement": "AUC", "setting": "[2]; [11]", "value": 17000, "unit": "ng·h/mL"}, {"measurement": "half-life", "setting": "[2]; [11]", "value": 16.1, "unit": "min"}, {"measurement": "AUC", "setting": "[2]; male, Sprague-Dawley, rat, plasma, iv, 50 mg/kg, male rats, 50 mg/kg, 30-min IV infusion, read-out: AUC", "value": 7940, "unit": "ng·h/mL"}, {"measurement": "half-life", "setting": "[2]; male, Sprague-Dawley, rat, plasma, iv, 50 mg/kg, male rats, 50 mg/kg, 30-min IV infusion, read-out: Half-Life (converted)", "value": 20, "unit": "min"}, {"measurement": "AUC", "setting": "[2]; male, Sprague-Dawley, rat, plasma, iv, 100 mg/kg, male rats, 100 mg/kg, 30-min IV infusion, read-out: AUC", "value": 17100, "unit": "ng·h/mL"}, {"measurement": "half-life", "setting": "[2]; male, Sprague-Dawley, rat, plasma, iv, 100 mg/kg, male rats, 100 mg/kg, 30-min IV infusion, read-out: Half-Life (converted)", "value": 16.2, "unit": "min"}, {"measurement": "AUC", "setting": "[2]; male, Sprague-Dawley, rat, plasma, iv, 200 mg/kg, male rats, 200 mg/kg, 30-min IV infusion, read-out: AUC", "value": 37600, "unit": "ng·h/mL"}, {"measurement": "half-life", "setting": "[2]; male, Sprague-Dawley, rat, plasma, iv, 200 mg/kg, male rats, 200 mg/kg, 30-min IV infusion, read-out: Half-Life (converted)", "value": 19.4, "unit": "min"}, {"measurement": "Cmax", "setting": "[2]; [12]", "value": 71100, "unit": "ng/mL"}, {"measurement": "Tmax", "setting": "[2]; [12]", "value": 41, "unit": "min"}, {"measurement": "clearance", "setting": "[2]; [12]", "value": 80.7, "unit": "mL/min/kg"}, {"measurement": "Tmax", "setting": "[3]; 1 mg/kg, n = 3, mean ± S.D.", "value": 1.98, "unit": "min"}, {"measurement": "Tmax", "setting": "[3]; 5 mg/kg, n = 2, mean ± S.D.", "value": 1.98, "unit": "min"}, {"measurement": "Tmax", "setting": "[3]; 20 mg/kg, n = 3, mean ± S.D.", "value": 1.98, "unit": "min"}, {"measurement": "Tmax", "setting": "[3]; 50 mg/kg, n = 3, mean ± S.D.", "value": 1.98, "unit": "min"}, {"measurement": "AUC (total area under the concentration-time curve from zero to infinity)", "setting": "[3]; 1 mg/kg, n = 3, mean ± S.D.", "value": "0.221 ± 0.054", "unit": "μg-"}, {"measurement": "Cmax", "setting": "[3]; 1 mg/kg, n = 3, mean ± S.D.", "value": "0.802 ± 0.165", "unit": "μg/m"}, {"measurement": "AUC (total area under the concentration-time curve from zero to infinity)", "setting": "[3]; 5 mg/kg, n = 2", "value": 0.826, "unit": "μg-"}, {"measurement": "Cmax", "setting": "[3]; 5 mg/kg, n = 2", "value": 3.82, "unit": "μg/m"}, {"measurement": "AUC (total area under the concentration-time curve from zero to infinity)", "setting": "[3]; 20 mg/kg, n = 3, mean ± S.D.", "value": "3.30 ± 0.36", "unit": "μg-"}, {"measurement": "Cmax", "setting": "[3]; 20 mg/kg, n = 3, mean ± S.D.", "value": "13.5 ± 1.52", "unit": "μg/m"}, {"measurement": "AUC (total area under the concentration-time curve from zero to infinity)", "setting": "[3]; 50 mg/kg, n = 3, mean ± S.D.", "value": "8.47 ± 0.02", "unit": "μg-"}, {"measurement": "Cl", "setting": "[3]; 50 mg/kg, n = 3, mean ± S.D.", "value": "98.5 ± 4.17", "unit": "mL/min/kg"}, {"measurement": "Cmax", "setting": "[3]; 50 mg/kg, n = 3, mean ± S.D.", "value": "35.5 ± 3.01", "unit": "μg/m"}, {"measurement": "Vss", "setting": "[3]; 50 mg/kg, n = 3, mean ± S.D.", "value": "1.67 ± 0.04", "unit": "L/kg"}]}
